These results are taken from patent publication US20220041641A1, “QUATERNARY AMMONIUM SALTS AS INHIBITORS OF TRIMETHYLAMINE PRODUCTION” (Senda Biosciences, Inc., priority 2018, published 2022).

Where a name gives a salt, the structure may show the parent alone.

By IC50 is commonly meant the concentration needed to halve the response being measured.

Chain of CutC from Proteus mirabilis (B4EYG1 entry or part of it): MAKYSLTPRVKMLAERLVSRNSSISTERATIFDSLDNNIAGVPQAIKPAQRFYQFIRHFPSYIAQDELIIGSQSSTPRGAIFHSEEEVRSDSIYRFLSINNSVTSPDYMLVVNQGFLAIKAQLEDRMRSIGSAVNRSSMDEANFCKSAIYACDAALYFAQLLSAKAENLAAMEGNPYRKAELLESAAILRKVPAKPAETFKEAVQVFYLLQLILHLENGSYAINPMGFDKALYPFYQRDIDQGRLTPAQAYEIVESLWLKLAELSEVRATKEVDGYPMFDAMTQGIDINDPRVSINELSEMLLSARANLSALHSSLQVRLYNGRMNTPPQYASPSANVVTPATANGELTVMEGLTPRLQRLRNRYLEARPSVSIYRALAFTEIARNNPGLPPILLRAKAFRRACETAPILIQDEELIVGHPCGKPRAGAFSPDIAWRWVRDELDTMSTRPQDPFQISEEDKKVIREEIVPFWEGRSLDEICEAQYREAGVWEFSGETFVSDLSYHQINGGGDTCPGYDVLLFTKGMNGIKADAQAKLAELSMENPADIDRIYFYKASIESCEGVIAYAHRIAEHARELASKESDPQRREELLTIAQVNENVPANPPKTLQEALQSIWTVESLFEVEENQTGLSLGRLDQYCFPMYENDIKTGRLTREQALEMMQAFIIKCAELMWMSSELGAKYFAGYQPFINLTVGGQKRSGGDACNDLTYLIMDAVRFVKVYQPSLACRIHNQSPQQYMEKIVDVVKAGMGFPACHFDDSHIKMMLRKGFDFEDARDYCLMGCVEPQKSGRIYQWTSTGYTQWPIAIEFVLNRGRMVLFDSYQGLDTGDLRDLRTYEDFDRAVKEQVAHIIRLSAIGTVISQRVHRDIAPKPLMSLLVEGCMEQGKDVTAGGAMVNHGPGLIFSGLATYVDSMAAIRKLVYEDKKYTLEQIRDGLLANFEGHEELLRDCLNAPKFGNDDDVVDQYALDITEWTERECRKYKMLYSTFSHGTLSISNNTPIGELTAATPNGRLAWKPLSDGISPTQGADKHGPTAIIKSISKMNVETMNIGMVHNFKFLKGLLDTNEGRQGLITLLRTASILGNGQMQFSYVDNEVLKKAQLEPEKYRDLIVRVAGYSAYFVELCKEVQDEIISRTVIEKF
Chain of CutC from Proteus mirabilis (B4EYG0 entry or part of it, further chain): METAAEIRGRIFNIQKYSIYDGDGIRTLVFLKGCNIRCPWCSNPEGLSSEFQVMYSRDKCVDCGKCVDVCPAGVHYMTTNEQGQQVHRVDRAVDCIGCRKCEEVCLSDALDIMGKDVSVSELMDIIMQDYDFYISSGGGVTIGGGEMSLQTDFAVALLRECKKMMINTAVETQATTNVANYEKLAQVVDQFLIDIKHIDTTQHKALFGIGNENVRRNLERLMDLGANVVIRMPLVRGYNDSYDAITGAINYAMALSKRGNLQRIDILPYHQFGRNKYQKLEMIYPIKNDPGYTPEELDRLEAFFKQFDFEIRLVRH

The first assay has as its target CutC from Proteus mirabilis (Proteus mirabilis, UniProt B4EYG1). The assay can be described thus: Cell-based assay for TMA production from a native producer (P. mirabilis). The following applies: d9-TMA from 1 mM d9-choline, 5 h, 37° C.; value 10 given when no fit or % TMA remaining at 10 μM higher than 15%; read-out: Average IC50 Whole cell P. mirabilis. From the text:
In each bacterium, CutC was modified into its activated form by a cognate activating enzyme, CutD (protein EDU36696.1 for C. sporogenes; protein WP_004249185.1 for P. mirabilis). […] Trimethylamine may subsequently be converted by human enzymes such as flavin monooxygenase 3 to trimethylamine N-oxide, which might be associated with negative health consequences in humans.
A compound's ability to inhibit CutC from Proteus mirabilis and C. sporogenes from converting choline into trimethylamine was tested in cells as described. A BHI blood plate was inoculated with a frozen stock of Proteus mirabilis or Clostridium sporogenes under anaerobic conditions. A single colony was isolated from the plate and inoculated into 5 mL BHI supplemented with 1 mM choline under anaerobic conditions. The liquid cultures were grown overnight at 37° C.
To prepare each sample, 300 μL of the saturated culture was then inoculated into a 30 mL dilution blank under anaerobic conditions. 1 mM (trimethyl-d9)-choline and a sufficient amount of a compound to obtain a final concentration of 10 μM were added to the inoculated dilution blank. […] The mixture was incubated at 37° C. for 5 h. […] After centrifugation, the samples were analyzed by LCMS to determine the amount of d9-TMA produced.
Consider `C#CC[N+](C)(C)C[C@H](C)C(=O)O` [Compound 166, (S)—N-(2-carboxypropyl)-N,N-dimethylprop-2-yn-1-aminium Chloride], for which the IC50 was found to be 1.26 µM.
Same read-out and setting: the value for `C#CC[N+]1(CC(=O)O)CCCCC1` [Compound 160, 1-(carboxymethyl)-1-(prop-2-yn-1-yl)piperidin-1-ium bromide] was no less than 10 µM.
Still for that read-out and setting: to `C[N+](C)(C)CC#N` [Compound 169, (cyanomethyl)trimethylazanium Iodide] belongs no less than 10 µM; to `C#CC[N+]1(CF)CC[C@@H](O)C1` (stereo partly drawn) [Compound 214, (3R)-1-(fluoromethyl)-3-hydroxy-1-(prop-2-yn-1-yl)pyrrolidin-1-ium], 3.87 µM; to `C#CC[N+](C)(C)Cc1ncco1` [Compound 207, dimethyl[(1,3-oxazol-2-yl)methyl](prop-2-yn-1-yl)azanium Chloride], 0.31 µM.
On the same count and under the same terms, the value for `C#CC[N+]1(CCO)CCCCC1` [Compound 154, 1-(2-hydroxyethyl)-1-(prop-2-yn-1-yl)piperidin-1-ium Bromide] was no less than 10 µM.
As for `C#CC[N+](C)(C)CCNC(=O)OC(C)(C)C` [Compound 192, tert-butyl N-{2-[dimethyl(prop-2-yn-1-yl)azaniumyl]ethyl}carbamate Bromide], the IC50 was greater than 10 µM.
Same read-out and setting: the value for `COC[N+](C)(C)CCO` [Compound 212, (2-hydroxyethyl)(methoxymethyl)dimethylazanium trifluoroacetate] was 1.99 µM.
On the same count and under the same terms, to `CSC[N+](C)(C)CCO` [Compound 195, (2-hydroxyethyl)dimethyl[(methylsulfanyl)methyl]azanium] belongs greater than 10 µM.
With `CC1OC1C[N+](C)(C)C` (stereo not shown) [Compound 176, trimethyl[(3-methyloxiran-2-yl)methyl]azanium], the IC50 was no less than 10 µM.
As to `C#CC[N+](C)(CC#C)CCS(=O)(=O)O` [Compound 223, methylbis(prop-2-yn-1-yl)(2-sulfoethyl)azanium], the IC50 came to 2.28 µM.
On the same count and under the same terms, the value for `C[N+](C)(CCO)C1COC1` [Compound 219, N-(2-hydroxyethyl)-N,N-dimethyloxetan-3-aminium trifluoroacetate] was greater than 10 µM; that for `CC[N+](C)(CF)CCO` (stereo not shown) [Compound 213, ethyl(fluoromethyl)(2-hydroxyethyl)(methyl)azanium Iodide] was 0.18 µM; that for `C#CC[N+](C)(C)C[C@@H](C)C(=O)OC` [Compound 174, [(2R)-3-methoxy-2-methyl-3-oxopropyl]dimethyl(prop-2-yn-1-yl)azanium] was 0.17 µM.
As for `C#CC[N+](C)(C)CC=C` [Compound 211, N,N-dimethyl-N-(prop-2-yn-1-yl)prop-2-en-1-aminium 2,2,2-trifluoroacetate], the IC50 was 0.211 µM.
Same read-out and setting: to `C#CC[N+](C)(C)CCOCCO` [Compound 191, [2-(2-hydroxyethoxy)ethyl]dimethyl(prop-2-yn-1-yl)azanium] belongs 2.17 µM; to `C[N+](C)(CCO)C1CCC1` [Compound 199, N-(2-hydroxyethyl)-N,N-dimethylcyclobutanaminium], greater than 10 µM.
For the compound `C#CC[N+](C)(C)CC(=O)NS(C)(=O)=O` [Compound 216, [(methanesulfonylcarbamoyl)methyl]dimethyl(prop-2-yn-1-yl)azanium], the IC50 was greater than 10 µM.
The same measure, in the same setting: to `C#CC[N+]1(CC#C)CCCN1` [Compound 201, 1,1-bis(prop-2-yn-1-yl)pyrazolidin-1-ium Bromide] belongs greater than 10 µM.
For the compound `C#CC[N+](C)(C)CC1OC1C` (stereo not shown) [Compound 181, dimethyl[(3-methyloxiran-2-yl)methyl](prop-2-yn-1-yl)azanium], the IC50 is greater than 10 µM.
Same read-out and setting: the value for `C#CC[N+](C)(C)CCO[C@H]1CO[C@H]2[C@@H]1OC[C@H]2OCC[N+](C)(C)CC#C` [Compound 71, N,N′-((((3R,3aR,6S,6aR)-hexahydrofuro[3,2-b]furan-3,6-diyl)bis(oxy))bis(ethane-2,1-diyl))bis(N,N-dimethylprop-2-yn-1-aminium) bistrifluoroacetate] was no less than 10 µM; that for `C[N+]12CCC(CC1)[C@H](O)C2` [Compound 148, (1s,4s)-3-hydroxy-1-methylquinuclidin-1-ium] was no less than 10 µM.
Still for that read-out and setting: the value for `C#CC[N+]1(CF)CCCCC1` [Compound 164, 1-(fluoromethyl)-1-(prop-2-yn-1-yl)piperidin-1-ium Iodide] was no less than 10 µM.
`C#CC[N+](C)(C)CC#C` [Compound 165, N,N-dimethyl-N-(prop-2-yn-1-yl)prop-2-yn-1-aminium Bromide]: the IC50 was determined as 2.13 µM.
On the same count and under the same terms, the value for `C=C(C[N+](C)(C)C)C(=O)O` [Compound 155, 2-carboxy-N,N,N-trimethylprop-2-en-1-aminium Bromide] was 2.58 µM; that for `C[N+](C)(CCO)CC1COC1` [Compound 184, (2-hydroxyethyl)dimethyl[(oxetan-3-yl)methyl]azanium Bromide] was greater than 10 µM.
Same read-out and setting: the value for `C=C(C[N+](C)(C)CC#N)C(=O)OC` [Compound 189, N-(cyanomethyl)-2-(methoxycarbonyl)-N,N-dimethylprop-2-en-1-aminium Bromide] was greater than 10 µM; that for `C[N+]1(CF)CCCC[C@@H]1CO` (stereo partly drawn) [Compound 161, (2R)-1-(fluoromethyl)-2-(hydroxymethyl)-1-methylpiperidin-1-ium Iodide] was no less than 10 µM.
The same measure, in the same setting: the value for `C[N+]12CCC(O)(CC1)CC2` [Compound 149, 4-hydroxy-1-methylquinuclidin-1-ium] was no less than 10 µM.
As to `C[N+](CF)(CCO)C1CC1` (stereo not shown) [Compound 172, N-(fluoromethyl)-N-(2-hydroxyethyl)-N-methylcyclopropanaminium Iodide], the IC50 was no less than 10 µM.
Still for that read-out and setting: the value for `C#CC[N+](C)(C)CC#N` [Compound 168, (cyanomethyl)dimethyl(prop-2-yn-1-yl)azanium Bromide] was 0.87 µM; that for `C#CC[N+](C)(C)CC1(C(=O)OC)CC1` [Compound 190, N-((1-(methoxycarbonyl)cyclopropyl)methyl)-N,N-dimethylprop-2-yn-1-aminium Bromide] was 1.28 µM; that for `C[N+](C)(CCO)C(F)F` [Compound 193, (difluoromethyl)(2-hydroxyethyl)dimethylazanium] was 1.38 µM.
Still for that read-out and setting: the value for `C#CC[N+]1(CF)CCCC1` [Compound 187, 1-(fluoromethyl)-1-(prop-2-yn-1-yl)pyrrolidin-1-ium] was 0.763 µM; that for `C=C(CO)C[N+](C)(C)C` [Compound 167, (3-hydroxy-2-methylidenepropyl)trimethylazanium trifluoroacetate] was no less than 10 µM; that for `C#CC[N+](C)(C)CCCB(O)O` [Compound 222, {3-[dimethyl(prop-2-yn-1-yl)azaniumyl]propyl}boronic Acid] was greater than 10 µM.
The same measure, in the same setting: the value for `C#CC[N+](C)(CF)CCO` (stereo not shown) [Compound 153, N-(fluoromethyl)-N-(2-hydroxyethyl)-N-methylprop-2-yn-1-aminium Iodide] was 0.02 µM; that for `CCC[N+](C)(CF)CCO` (stereo not shown) [Compound 225] was 0.629 µM; that for `C#CC[N+](C)(C)CCS(=O)(=O)O` [Compound 221, dimethyl(prop-2-yn-1-yl)(2-sulfoethyl)azanium Trifluoroacetate] was greater than 10 µM.
With `C#CC[N+](C)(C)CSC` [Compound 196, dimethyl[(methylsulfanyl)methyl](prop-2-yn-1-yl)azanium], the IC50 worked out at 7.78 µM.
The same measure, in the same setting: to `C#CC[N+](C)(C)CC(=C)Br` [Compound 217, (2-bromoprop-2-en-1-yl)dimethyl(prop-2-yn-1-yl)azanium] belongs 0.771 µM; to `C[N+]1(C)CCOC(O)(C(F)(F)F)C1` (stereo not shown) [Compound 218, 2-hydroxy-4,4-dimethyl-2-(trifluoromethyl)morpholin-4-ium trifluoroacetate], greater than 10 µM.
The same measure, in the same setting: to `C[N+]1(C)CCOCC1CO` (stereo not shown) [Compound 220, 3-(hydroxymethyl)-4,4-dimethylmorpholin-4-ium] belongs greater than 10 µM; to `C#CC[N+](C)(C)CC(=C)C` [Compound 208, N,N,2-trimethyl-N-(prop-2-yn-1-yl)prop-2-en-1-aminium 2,2,2-trifluoroacetate], greater than 10 µM; to `C=CC[N+](C)(C)CC(=C)C(=O)OC` [Compound 203, N-allyl-2-(methoxycarbonyl)-N,N-dimethylprop-2-en-1-aminium 2,2,2-trifluoroacetate], 1.72 µM.

The same assay, now with this note: read-out: Average IC50 Whole cell P. mirabilis; d9-TMA from 1 mM d9-choline, 5 h, 37° C.; value 10 given when no fit or % TMA remaining at 10 μM higher than 15%.
In the case of `C#CC[N+](C)(C)CCP(=O)(O)O` [Compound 210, {2-[dimethyl(prop-2-yn-1-yl)azaniumyl]ethyl}phosphonic Acid], the IC50 was greater than 10 µM.
`C#CC[N+](C)(C)CC[PH](=O)O` [Compound 227, {2-[dimethyl(prop-2-yn-1-yl)azaniumyl]ethyl}phosphinic Acid]: the IC50 was greater than 10 µM.
As to `C[N+](C)(C)CCCl` [Compound 180], the IC50 is greater than 10 µM.
Regarding `C#CC[N+](C)(C)CCP(=O)(OCC)OCC` [Compound 202, diethyl {2-[dimethyl(prop-2-yn-1-yl)azaniumyl]ethyl}phosphonate Bromide], the IC50 was 0.242 µM.
